{
  "source": "patent US20240083861A1",
  "about": "“HSD17B13 INHIBITORS AND USES THEREOF” (FL2022-001, Inc., priority 2020, published 2024)",
  "biological_target": "T1, Recombinant human HSD17B13 enzyme (Homo sapiens, UniProt Q7Z5P4)",
  "T1 sequence (Q7Z5P4 20-300)": "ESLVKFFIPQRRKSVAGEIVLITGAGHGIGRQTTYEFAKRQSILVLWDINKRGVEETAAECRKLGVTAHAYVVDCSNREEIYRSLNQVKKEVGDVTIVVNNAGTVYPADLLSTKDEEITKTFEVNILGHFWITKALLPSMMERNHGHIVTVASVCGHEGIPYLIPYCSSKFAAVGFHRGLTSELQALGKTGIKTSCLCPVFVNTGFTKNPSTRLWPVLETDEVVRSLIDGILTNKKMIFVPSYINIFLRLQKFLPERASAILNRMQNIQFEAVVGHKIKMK",
  "experiment": "HSD17b13 NAD(P)H-Glo biochemical assay",
  "settings": "50 uM estradiol, 1 mM NAD+, NAD(P)H-Glo luminescence; read-out: HSD17β13 IC50",
  "how_it_was_run": "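Luminescent NAD(P)H-Glo read-out, taken after 1 hour at RT, measured cofactor reduction. Substrate and cofactor were estradiol at 50 uM and NAD+ at 1 mM final, reacted with the recombinant human enzyme for 3 hours at 37° C in 20 mM Tris pH7.4, 0.002% Tween-20, 0.02% BSA. Compound was pre-incubated with enzyme for 20 minutes at RT.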",
  "data": [
    {"smiles": "CC(C)OC1CCN(c2ncc3c(-c4cc(C(F)(F)F)c(F)c(O)c4F)nn(C)c3n2)CC1", "note": "[Compound 18.69, 2,6-Difluoro-3-(6-(4-isopropoxypiperidin-1-yl)-1-methyl-1H-pyrazolo[3,4-d]pyrimidin-3-y1)-5-(trifluoromethyl)phenol]", "values": [
      {"measurement": "IC50", "value": "< 100", "unit": "nM"}
    ]},
    {"smiles": "CCOC1CCN(c2ncc3c(-c4cc(C(F)(F)F)c(F)c(O)c4F)nn(C)c3n2)CC1", "note": "[Compound 18.70, 3-(6-(4-Ethoxypiperidin-1-y1)-1-methyl-1H-pyrazolo[3,4-d]pyrimidin-3-y1)-2,6-difluoro-5-(trifluoromethyl)phenol]", "values": [
      {"measurement": "IC50", "value": "< 100", "unit": "nM"}
    ]},
    {"smiles": "Cn1nc(-c2cc(C(F)(F)F)c(F)c(O)c2F)c2cnc(N3CCCC(c4ccncn4)C3)nc21", "note": "(stereo not shown) [Compound 18.71, 2,6-Difluoro-3-(1-methyl-6-(3-(pyrimidin-4-y1)piperidin-1-yl)-1H-pyrazolo[3,4-d]pyrimidin-3-y1)-5-(trifluoromethyl)phenol]", "values": [
      {"measurement": "IC50", "value": "< 100", "unit": "nM"}
    ]},
    {"smiles": "CN1CCN(c2ncc3c(-c4cc(C(F)(F)F)c(F)c(O)c4F)nn(C)c3n2)CC1", "note": "[Compound 18.72, 2,6-Difluoro-3-(1-methyl-6-(4-methylpiperazin-1-yl)-1H-pyrazolo[3,4-d]pyrimidin-3-y1)-5-(trifluoromethyl)phenol]", "values": [
      {"measurement": "IC50", "value": "100 to 1000", "unit": "nM"}
    ]},
    {"smiles": "CC(C)N1CCN(c2ncc3c(-c4cc(C(F)(F)F)c(F)c(O)c4F)nn(C)c3n2)CC1", "note": "[Compound 18.73, 2,6-Difluoro-3-(6-(4-isopropylpiperazin-1-yl)-1-methyl-1H-pyrazolo[3,4-d]pyrimidin-3-yl)-5-(trifluoromethyl)phenol]", "values": [
      {"measurement": "IC50", "value": "100 to 1000", "unit": "nM"}
    ]},
    {"smiles": "Cn1nc(-c2cc(C(F)(F)F)c(F)c(O)c2F)c2cnc(N3CC4CC(C3)N4S(C)(=O)=O)nc21", "note": "[Compound 18.74, 2,6-Difluoro-3-(1-methyl-6-(6-(methylsulfony1)-3,6-diazabicyclo[3.1.1]heptan-3-yl)-1H-pyrazolo[3,4-d]pyrimidin-3-y1)-5-(trifluoromethyl)phenol]", "values": [
      {"measurement": "IC50", "value": "100 to 1000", "unit": "nM"}
    ]},
    {"smiles": "Cn1nc(-c2cc(C(F)(F)F)c(F)c(O)c2F)c2cnc(N3CCNCC3)nc21", "note": "[Compound 18.75, 2,6-Difluoro-3-(1-methyl-6-(piperazin-1-y1)-1H-pyrazolo[3,4-d]pyrimidin-3-y1)-5-(trifluoromethyl)phenol]", "values": [
      {"measurement": "IC50", "value": "100 to 1000", "unit": "nM"}
    ]},
    {"smiles": "Cn1nc(-c2cc(C(F)(F)F)c(F)c(O)c2F)c2cnc(N3CCCC(c4ncccn4)C3)nc21", "note": "(stereo not shown) [Compound 18.76, 2,6-Difluoro-3-(1-methyl-6-(3-(pyrimidin-2-y1)piperidin-1-yl)-1H-pyrazolo[3,4-d]pyrimidin-3-y1)-5-(trifluoromethyl)phenol]", "values": [
      {"measurement": "IC50", "value": "< 100", "unit": "nM"}
    ]},
    {"smiles": "COC1CCN(c2ncc3c(-c4cc(C(F)(F)F)c(F)c(O)c4F)nn(C)c3n2)CC1", "note": "[Compound 18.77, 2,6-Difluoro-3-(6-(4-methoxypiperidin-1-y1)-1-methyl-1H-pyrazolo[3,4-d]pyrimidin-3-yl)-5-(trifluoromethyl)phenol]", "values": [
      {"measurement": "IC50", "value": "< 100", "unit": "nM"}
    ]},
    {"smiles": "Cn1nc(-c2cc(C(F)(F)F)c(F)c(O)c2F)c2cnc(N3CCOC(c4nnc[nH]4)C3)nc21", "note": "(stereo not shown) [Compound 18.78, 3-(6-(2-(4H-1,2,4-Triazol-3-yl)morpholino)-1-methyl-1H-pyrazolo[3,4-d]pyrimidin-3-y1)-2,6-difluoro-5-(trifluoromethyl)phenol]", "values": [
      {"measurement": "IC50", "value": "100 to 1000", "unit": "nM"}
    ]},
    {"smiles": "Cn1nc(-c2cc(C(F)(F)F)c(F)c(O)c2F)c2cnc(N3CCOC(c4ncc[nH]4)C3)nc21", "note": "(stereo not shown) [Compound 18.79, 3-(6-(2-(1H-Imidazol-2-yl)morpholino)-1-methyl-1H-pyrazolo[3,4-d]pyrimidin-3-y1)-2,6-difluoro-5-(trifluoromethyl)phenol]", "values": [
      {"measurement": "IC50", "value": "100 to 1000", "unit": "nM"}
    ]},
    {"smiles": "Cn1nc(-c2cc(C(F)(F)F)c(F)c(O)c2F)c2cnc(N3CCOC(c4nccs4)C3)nc21", "note": "(stereo not shown) [Compound 18.80, 2,6-Difluoro-3-(1-methyl-6-(2-(thiazol-2-yl)morpholino)-1H-pyrazolo[3,4-d]pyrimidin-3-y1)-5-(trifluoromethyl)phenol]", "values": [
      {"measurement": "IC50", "value": "< 100", "unit": "nM"}
    ]},
    {"smiles": "Cn1nc(-c2cc(C(F)(F)F)c(F)c(O)c2F)c2cnc(N3CCOC(c4ncon4)C3)nc21", "note": "(stereo not shown) [Compound 18.81, 3-(6-(2-(1,2,4-Oxadiazol-3-yl)morpholino)-1-methyl-1H-pyrazolo[3,4-d]pyrimidin-3-y1)-2,6-difluoro-5-(trifluoromethyl)phenol]", "values": [
      {"measurement": "IC50", "value": "< 100", "unit": "nM"}
    ]},
    {"smiles": "Cn1nc(-c2cc(C(F)(F)F)c(F)c(O)c2F)c2cnc(N3CCOC(c4cc[nH]n4)C3)nc21", "note": "(stereo not shown) [Compound 18.82, 3-(6-(2-(1H-Pyrazol-3-yl)morpholino)-1-methyl-1H-pyrazolo[3,4-d]pyrimidin-3-y1)-2,6-difluoro-5-(trifluoromethyl)phenol]", "values": [
      {"measurement": "IC50", "value": "< 100", "unit": "nM"}
    ]},
    {"smiles": "Cn1nc(-c2cc(C(F)(F)F)c(F)c(O)c2F)c2cnc(N3CCN(S(C)(=O)=O)C4(CCCC4)C3)nc21", "note": "[Compound 18.83, 2,6-Difluoro-3-(1-methyl-6-(6-(methylsulfonyl)-6,9-diazaspiro[4.5]decan-9-yl)-1H-pyrazolo[3,4-d]pyrimidin-3-y1)-5-(trifluoromethyl)phenol]", "values": [
      {"measurement": "IC50", "value": "< 100", "unit": "nM"}
    ]},
    {"smiles": "Cn1nc(-c2cc(C(F)(F)F)c(F)c(O)c2F)c2cnc(N3CCN(S(C)(=O)=O)C4(CCCCC4)C3)nc21", "note": "[Compound 18.84, 2,6-Difluoro-3-(1-methyl-6-(1-(methylsulfony1)-1,4-diazaspiro[5.5]undecan-4-yl)-1H-pyrazolo[3,4-d]pyrimidin-3-y1)-5-(trifluoromethyl)phenol]", "values": [
      {"measurement": "IC50", "value": "< 100", "unit": "nM"}
    ]},
    {"smiles": "Cn1nc(-c2cc(C(F)(F)F)c(F)c(O)c2F)c2cnc(N3CCN(S(C)(=O)=O)C4(CCOCC4)C3)nc21", "note": "[Compound 18.85, 2,6-Difluoro-3-(1-methyl-6-(1-(methylsulfony1)-9-oxa-1,4-diazaspiro[5.5]undecan-4-y1)-1H-pyrazolo[3,4-d]pyrimidin-3-y1)-5-(trifluoromethyl)phenol]", "values": [
      {"measurement": "IC50", "value": "< 100", "unit": "nM"}
    ]},
    {"smiles": "Cn1nc(-c2cc(C(F)(F)F)c(F)c(O)c2F)c2cnc(N3CCO[C@@H](c4ccccc4)C3)nc21", "note": "[Compound 18.86, (S)-2,6-Difluoro-3-(1-methyl-6-(2-phenylmorpholino)-1H-pyrazolo[3,4-d]pyrimidin-3-y1)-5-(trifluoromethyl)phenol]", "values": [
      {"measurement": "IC50", "value": "< 100", "unit": "nM"}
    ]},
    {"smiles": "Cn1nc(-c2cc(C(F)(F)F)c(F)c(O)c2F)c2cnc(N3CCO[C@H](c4ccccc4)C3)nc21", "note": "[Compound 18.87, (R)-2,6-Difluoro-3-(1-methyl-6-(2-phenylmorpholino)-1H-pyrazolo[3,4-d]pyrimidin-3-y1)-5-(trifluoromethyl)phenol]", "values": [
      {"measurement": "IC50", "value": "< 100", "unit": "nM"}
    ]},
    {"smiles": "Cn1nc(-c2cc(C(F)(F)F)c(F)c(O)c2F)c2cnc(N3CCC(O)(c4cccnc4)CC3)nc21", "note": "[Compound 18.88, 1-(3-(2,4-Difluoro-3-hydroxy-5-(trifluoromethyl)phenyl)-1-methyl-1H-pyrazolo[3,4-d]pyrimidin-6-yl)-4-(pyridin-3-yl)piperidin-4-ol]", "values": [
      {"measurement": "IC50", "value": "< 100", "unit": "nM"}
    ]},
    {"smiles": "CN1CC2(CCN(c3ncc4c(-c5cc(C(F)(F)F)c(F)c(O)c5F)nn(C)c4n3)CC2)OC1=O", "note": "[Compound 18.89, 8-(3-(2,4-Difluoro-3-hydroxy-5-(trifluoromethyl)phenyl)-1-methyl-1H-pyrazolo[3,4-d]pyrimidin-6-yl)-3-methyl-1-oxa-3,8-diazaspiro[4.5]decan-2-one]", "values": [
      {"measurement": "IC50", "value": "< 100", "unit": "nM"}
    ]},
    {"smiles": "Cn1nc(-c2cc(C(F)(F)F)c(F)c(O)c2F)c2cnc(N3CCCC(c4cncnc4)C3)nc21", "note": "(stereo not shown) [Compound 18.90, 2,6-Difluoro-3-(1-methyl-6-(3-(pyrimidin-5-y1)piperidin-1-yl)-1H-pyrazolo[3,4-d]pyrimidin-3-y1)-5-(trifluoromethyl)phenol]", "values": [
      {"measurement": "IC50", "value": "< 100", "unit": "nM"}
    ]},
    {"smiles": "Cn1nc(-c2cc(C(F)(F)F)c(F)c(O)c2F)c2cnc(N3CCC(O)(CO)CC3)nc21", "note": "[Compound 18.91, 1-(3-(2,4-Difluoro-3-hydroxy-5-(trifluoromethyl)phenyl)-1-methyl-1H-pyrazolo[3,4-d]pyrimidin-6-yl)-4-(hydroxymethyl)piperidin-4-ol]", "values": [
      {"measurement": "IC50", "value": "< 100", "unit": "nM"}
    ]},
    {"smiles": "Cn1nc(-c2cc(C(F)(F)F)c(F)c(O)c2F)c2cnc(N3CCC4(CCO4)CC3)nc21", "note": "[Compound 18.92, 2,6-Difluoro-3-(1-methyl-6-(1-oxa-7-azaspiro[3.5]nonan-7-y1)-1H-pyrazolo[3,4-d]pyrimidin-3-y1)-5-(trifluoromethyl)phenol]", "values": [
      {"measurement": "IC50", "value": "< 100", "unit": "nM"}
    ]},
    {"smiles": "Cn1nc(-c2cc(C(F)(F)F)c(F)c(O)c2F)c2cnc(N3CCC(O)(C4CC4)CC3)nc21", "note": "[Compound 18.93, 4-Cyclopropyl-1-(3-(2,4-difluoro-3-hydroxy-5-(trifluoromethyl)phenyl)-1-methyl-1H-pyrazolo[3,4-d]pyrimidin-6-y1)piperidin-4-ol]", "values": [
      {"measurement": "IC50", "value": "< 100", "unit": "nM"}
    ]},
    {"smiles": "CN1CCN(c2ncc3c(-c4cc(C(F)(F)F)c(F)c(O)c4F)nn(C)c3n2)CC1c1ccccc1", "note": "(stereo not shown) [Compound 18.94, 2,6-Difluoro-3-(1-methyl-6-(4-methyl-3-phenylpiperazin-1-y1)-1H-pyrazolo[3,4-d]pyrimidin-3-yl)-5-(trifluoromethyl)phenol]", "values": [
      {"measurement": "IC50", "value": "< 100", "unit": "nM"}
    ]},
    {"smiles": "Cn1nc(-c2cc(C(F)(F)F)c(F)c(O)c2F)c2cnc(N3CCOC4(CCOCC4)C3)nc21", "note": "[Compound 18.95, 2,6-Difluoro-3-(1-methyl-6-(1,9-dioxa-4-azaspiro[5.5]undecan-4-y1)-1H-pyrazolo[3,4-d]pyrimidin-3-y1)-5-(trifluoromethyl)phenol]", "values": [
      {"measurement": "IC50", "value": "< 100", "unit": "nM"}
    ]},
    {"smiles": "Cn1nc(-c2cc(C(F)(F)F)c(F)c(O)c2F)c2cnc(N3CCC(O)(c4ccccn4)CC3)nc21", "note": "[Compound 18.96, 1-(3-(2,4-Difluoro-3-hydroxy-5-(trifluoromethyl)phenyl)-1-methyl-1H-pyrazolo[3,4-d]pyrimidin-6-yl)-4-(pyridin-2-y1)piperidin-4-ol]", "values": [
      {"measurement": "IC50", "value": "< 100", "unit": "nM"}
    ]}
  ]
}
